Patent US20090326013A1, “ISOMERS OF INOSITOL NIACINATE AND USES THEREOF” (priority 2007, published 2009)

How the values were obtained:
[1] = 250 mg 3 times daily combined with Mg-chlorophenoxyisobutyrate; cited from earlier work
alcoholics = conditions: three or more grams of niacin daily, five year study; cited from earlier work
[2] = test system: women suffering from painful menstrual cramps; conditions: 100 mg niacin twice daily, then every 2-3 hours during heavy cramps; cited from earlier work
[3] = Dissolution and hydrolysis in simulated gastric fluid (SGF) pH 1.1, release of niacin; type: physicochemical; conditions: for time to complete dissolution in SGF: 25 mg in 25 mL SGF pH 1.1, 37°C, shaking; for release of niacin in SGF, allo-IHN compared with myo-IHN (FIG. 8): SGF pH 1.1, up to 150 hours
Description: The hydrolysis was performed in a 37±1° C. thermostatic water bath with a shaking rate at 97±2 rpm. At various time intervals, 100 μl aliquots were taken from the reaction mixture and diluted with 1.5 mL 80/20 acetonitrile/formic acid which were used to quench the hydrolysis reaction.
The pH of the SGF solution was 1.1 at 22° C. […] The reactor was placed in a thermostatic water bath at 37±1° C. with a shaking rate at 42±1 rpm. At various reaction times, 1 mL aliquots were taken from the reaction mixture and analyzed for niacin by HPLC.

[4] = Dissolution and hydrolysis in SIF with pancreatin at pH 6.7; type: in vitro ADME; conditions: pH 6.7, up to 40 hours
Description: Simulated intestinal fluid (SIF) with pancreatin was prepared according to the USP standard procedure (USP29-NF24 S2) with a pH of 6.7 at 24° C.

Esterase = test: Hydrolysis in pH 7.4 phosphate buffer (SIF) with esterase; type: in vitro ADME; conditions: for degradation intermediates (penta-, tetra-, tri-, di-niacinates) observed: 16 hours
Description: Esterase is an enzyme found in animal liver which catalyzes the hydrolysis of esters. The esterase reaches maximum activity in pH 8.0 borate buffer at 25° C. Simulated intestinal fluid without pancreatin (SIF, 1 L) was prepared according to USP standard procedure (USP29-NF24 S2). The pH of the SIF solution was then adjusted to 7.4. Esterase (6.0 mg) was then added to 200 mL of the pH 7.4 phosphate buffer. […] After sonication for about 1 minute these suspensions were carefully transferred to the hydrolysis medium. As each suspension was added to the pH 7.4 phosphate buffer, a milky white precipitated immediately appeared. The reactors were kept in a thermostatic water bath at 37±1° C. with a shaking rate at 42±1 rpm. At various reaction times ˜2 mL aliquots were taken from the hydrolysis solutions and filtered through 0.45 μm filters in order to remove any undissolved materials. The samples for HPLC analysis were prepared by addition of 20 μL 6N HCl to 1 mL filtrate.

[5] = Dissolution and hydrolysis in pH 7.4 phosphate buffer (SIF without pancreatin); type: physicochemical; conditions: at about 25 hours
Description: A pH 7.4 phosphate buffer solution was also prepared from a SIF test solution in the absence of pancreatin. […] The release of niacin and the appearance of the degradation intermediates were monitored up to about 74 hours.

[6] = pH 7.4 phosphate buffer with esterase

For `O=C(O[C@H]1[C@H](OC(=O)c2cccnc2)[C@@H](OC(=O)c2cccnc2)[C@H](OC(=O)c2cccnc2)[C@@H](OC(=O)c2cccnc2)[C@H]1OC(=O)c1cccnc1)c1cccnc1` [IHN, inositol hexaniacinate], the “influence on glucose tolerance” value [1] is listed as “no influence on glucose tolerance”.
In the case of `O=C(O)c1cccnc1` [niacin, pyridine-3-carboxylic acid], the “alcoholics who benefit from supplementation (reduced recidivism and symptom reduction)” value (alcoholics) is listed as 30-60% and the “participants experiencing significant relief of menstrual cramps” value [2] is listed as “Ninety”.
In the case of `O=C(O[C@H]1[C@H](OC(=O)c2cccnc2)[C@@H](OC(=O)c2cccnc2)[C@H](OC(=O)c2cccnc2)[C@@H](OC(=O)c2cccnc2)[C@H]1OC(=O)c1cccnc1)c1cccnc1` [myo-IHN, myo-inositol hexaniacinate, reference compound], the “time to complete dissolution in SGF” value [3] is reported as 6 h, the “release of niacin in SGF, allo-IHN compared with myo-IHN (FIG. 8)” value [3] is reported as “about the same” and the “release of niacin in SIF with pancreatin” value [4] is reported as “very little release of niacin”. For the same molecule, the “dissolution rate in the hydrolysis medium” value (Esterase; [6]) was “considerably slower than the hydrolysis rate”, the “extent of hydrolysis (FIG. 9)” value (Esterase; [6]) was “remained as a solid and did not hydrolyze” and the “degradation intermediates (penta-, tetra-, tri-, di-niacinates) observed” value (Esterase; [6]) was “absence of degradation intermediates”.
With `O=C(O[C@H]1[C@H](OC(=O)c2cccnc2)[C@@H](OC(=O)c2cccnc2)[C@H](OC(=O)c2cccnc2)[C@@H](OC(=O)c2cccnc2)[C@@H]1OC(=O)c1cccnc1)c1cccnc1` [scyllo-IHN, Scyllo-inositol hexaniacinate] the “time to complete dissolution in SGF” value [3] was > 53 h and the “dissolution and hydrolysis after increasing acidity of the SGF medium” value ([3]; 2 ml concentrated HCl injected after 53 hours) was “can be dissolved and the hydrolysis reaction commences to produce niacin”.
With `O=C(O[C@H]1[C@H](OC(=O)c2cccnc2)[C@H](OC(=O)c2cccnc2)[C@@H](OC(=O)c2cccnc2)[C@@H](OC(=O)c2cccnc2)[C@H]1OC(=O)c1cccnc1)c1cccnc1` [allo-IHN, allo-inositol hexaniacinate] the “niacin released in SGF” value ([3]; 20 mg in 200 mL SGF pH 1.1, 37°C, 118 hours) was 38.5 µg/mL, the “onset of dissolution and hydrolysis in SGF” value ([3]; 20 mg in 200 ml SGF pH 1.1, 37°C) was “began immediately after addition to the reaction medium” and the “niacin released in SGF, % of theoretical niacin content” value ([3]; SGF pH 1.1, 118 hours, theoretical 91 μg/mL) was ~42%. For the same molecule, the “release of niacin in SGF, allo-IHN compared with myo-IHN (FIG. 8)” value [3] was “about the same”, the “maximum concentration of niacin released” value ([5]; 20 mg in 200 mL pH 7.4 phosphate buffer) was 30.34 µg/mL and the “maximum niacin released, % of theoretical release” value ([5]; pH 7.4 phosphate buffer) was ~33%. For the same molecule, the “concentration of niacin released” value (Esterase; 20 mg in 200 mL pH 7.4 phosphate buffer with esterase, 25 hours) was 52.8 µg/mL, the “dissolution rate in the hydrolysis medium” value (Esterase; [6]) was “relatively fast” and the “degradation intermediates (penta-, tetra-, tri-, di-niacinates) observed” value (Esterase; [6]) was “only the degradation intermediates of allo-IHN”. The “niacin released, % of theoretical release” value (Esterase; pH 7.4 phosphate buffer with esterase, 25 hours) was ~58%, the “area response of the niacin peak compared with the myo-IHN sample” value (Esterase; pH 7.4 phosphate buffer with esterase, within one hour) was “significantly larger” and the “effect of the presence of esterase on release of niacin” value (Esterase; pH 7.4 phosphate buffer with vs without esterase) was “further enhances the release of niacin”.
